From patent US4568693A, “N-Naphthoylglycine derivatives” (Ayerst, McKenna & Harrison, Inc., priority 1981, dated 1986)

Columns and labels:
aldose reductase [1] = details: literature; cited from earlier work
aldose reductase [2] = target: T1, aldose reductase (Bos taurus, UniProt P16116); test: in vitro aldose reductase inhibition (modified Hayman and Kinoshita procedure); type: biochemical, bovine; details: for inhibition at 10 µM: 10^-5 molar, read-out: % Inhibition at Different Molar Concentration (in vitro), 10^-5; for inhibition at 1 µM: 10^-6 molar, read-out: % Inhibition at Different Molar Concentration (in vitro), 10^-6; for inhibition at 0.1 µM: 10^-7 molar, read-out: % Inhibition at Different Molar Concentration (in vitro), 10^-7
T1 construct: the preparation of the enzyme from bovine lens; from tissue; host or cells: bovine lens
Text: In the present case the procedure of Hayman and Kinoshita is modified in that the final chromatography step is omitted in the preparation of the enzyme from bovine lens.

[3] = system: accumulation of dulcitol in the lenses; test: galactosemic rats, dulcitol accumulation in the lens; type: in vivo, rat (Sprague-Dawley); details: 4 days, vs untreated galactosemic rats
Text: The aldose reductase inhibiting property of the compounds of this invention and the utilization of the compounds in preventing, diminishing and alleviating diabetic complications are demonstrable in experiments using galactosemic rats, see Dvornik et al., cited above. Such experiments are exemplified hereinbelow after the listing of the following general comments pertaining to these experiments:
(a) Four or more groups of six male rats, 50-70 g, Sprague-Dawley strain, were used. The first group, the control group, was fed a mixture of laboratory chow (rodent laboratory chow, Purina) and glucose at 20% (w/w %) concentration. The untreated galactosemic group was fed a similar diet in which galactose is substituted for glucose. The third group was fed a diet prepared by mixing a given amount of the test compound with the galactose containing diet. The concentration of galactose in the diet of the treated groups was the same as that for the untreated galactosemic group.
(b) After four days, the animals were killed by decapitation. The eyeballs were removed and punctured with a razor blade; the freed lenses were rolled gently on filter paper and weighed. The sciatic nerves were dissected as completely as possible and weighed. Both tissues were frozen and can be kept up to two weeks before being analyzed for dulcitol.
(c) The polyol determination was performed by a modification of the procedure of M. Kraml and L. Cosyns, Clin. Biochem., 2, 373 (1969). Only two minor reagent changes were made: (a) The rinsing mixture was an aqueous 5% (w/v) trichloroacetic acid solution and (b) the stock solution was prepared by dissolving 25 mg of dulcitol in 100 ml of an aqueous trichloroacetic acid solution. [N.B.: For each experiment the average value found in the tissue from rats fed the glucose diet was subtracted from the individual values found in the corresponding rat tissue to obtain the amount of polyol accumulated].
The figures under L and N represent the percentage decrease of dulcitol accumulation in the tissues of the lens and sciatic nerve, respectively, for treated rats as compared to untreated rats.

Structure (SMILES)	inhibition at 10 µM (aldose reductase [2]) [%]	inhibition at 1 µM (aldose reductase [2]) [%]	inhibition at 0.1 µM (aldose reductase [2]) [%]	further results
O=C1NC(=O)[C@@]2(CCOc3ccc(F)cc32)N1 [sorbinil, (S)-6-Fluoro-2,3-dihydrospiro(4H-1-benzopyran-4,4'-imidazolidine)-2',5'-dione]	–	–	–	inhibition of aldose reductase (result in words) (aldose reductase [1]): aldose reductase inhibiting properties
O=C(O)CN1C(=O)c2cccc3cccc(c23)C1=O [1,3-Dioxo-1H-benz[de]isoquinoline-2(3H)-acetic acid]	–	–	–	inhibition of aldose reductase (result in words) (aldose reductase [1]): effective inhibitor of aldose reductase
COC(=O)CN(C)C(=S)c1cccc2c(C(F)(F)F)c(OC)ccc12 [Example 23, N-[[5-(trifluoromethyl)-6-methoxy-1-naphthalenyl]thioxomethyl]-N-methylglycine methyl ester]	9	–	–	percentage decrease of dulcitol accumulation, lens (L) ([3]; 11 mg/kg/day in diet): 10%

Further lines, with some results ahead:

inhibition at 10 µM (aldose reductase [2]) [%]	inhibition at 1 µM (aldose reductase [2]) [%]	inhibition at 0.1 µM (aldose reductase [2]) [%]	Structure (SMILES)	further results
91	83	40	CN(CC(=O)O)C(=S)c1cccc2c(Cl)cccc12 [Example 40, N-[(5-chloro-1-naphthalenyl)thioxomethyl]-N-methylglycine]	percentage decrease of dulcitol accumulation, lens (L) ([3]; 156 mg/kg/day in diet): 34%
88	75	29	CN(CC(=O)O)C(=S)c1cccc2c(Cl)cc(Cl)cc12 [Example 46, N-[(5,7-dichloro-1-naphthalenyl)thioxomethyl]-N-methylglycine]	percentage decrease of dulcitol accumulation, lens (L) ([3]; 52 mg/kg/day in diet): 29%
85	78	33	COc1c(Cl)cc(C(=S)N(C)CC(=O)O)c2ccccc12 [Example 45, N-[(3-chloro-4-methoxy-1-naphthalenyl)thioxomethyl]-N-methylglycine]	percentage decrease of dulcitol accumulation, lens (L) ([3]; 163 mg/kg/day in diet): 15%
93	87	47	CN(CC(=O)O)C(=S)c1cccc2c(Br)cccc12 [Example 32, N-[(5-Bromo-1-naphthalenyl)thioxomethyl]-N-methylglycine]	percentage decrease of dulcitol accumulation, lens (L) ([3]; 62 mg/kg/day in diet): 14%; percentage decrease of dulcitol accumulation, lens (L) ([3]; 121 mg/kg/day in diet): 20%; percentage decrease of dulcitol accumulation, lens (L) ([3]; 189 mg/kg/day in diet): 24%
